# What was measured:
# [1] = system: immature male rats (testis growth); assay: Testis weight in immature male rats after 2 days of treatment; type: in vivo; settings: 21 days of age, GnRH antagonist 50 μg/rat, testes weighed two days after initial injection, untreated 192±28 mg
# Procedure: Immature male rats (21 days of age, weighing between about 45 and 50 g) were injected subcutaneously (s.c.) every 6h for a period of 2 days with 1 ml conditioned media of SF9 cells (10^8 cells equivalent/injection) containing solubilized FSH receptor fragments prepared as described above. The concentration of soluble receptor protein in the injection volume was between about 30 and 100 μg/ml. The effective dose administered every 6 hours was therefore between […].
# (§1) Two days after the initial injection, the testis were weighed and testis cell apoptosis was quantitated using a 3' end-labeling method (Tapanainen,et al., 1993). The effects of FBP were also assayed using in situ analysis of specific cell types undergoing apoptosis with the "APOTAG" kit (Oncor, Gaithersburg, Md.) as previously described (Billig, et al., 1995).
# Some animals were treated with a potent gonadotropin releasing hormone (GnRH) antagonist (Org30850: Acetyl-D-parachloro-Phe (AcDpCl-Phe), D-parachloro-Phe (DpCl-Phe), D-Bal, DLys, DAla-amide; (AcDpCl)Phe1 - (DpCl)Phe2 - D-Bal3 - DLys6 -DAla10(amide) (SEQ ID NO:5; D refers to D (not L) amino acids); 50 μg/rat, FIG. 5C (ANT); Decker, et al., 1992) to suppress pituitary release of LH and FSH (Decker, et al., 1992) whereas others were treated with conditioned media of SF9 cells infected with wild type baculovirus. […]
# [2] = system: rat testis cells; assay: Testis cell apoptosis, DNA fragmentation by 3' end-labeling and in situ analysis (Apotag kit); type: in vivo; settings: immature male rats; GnRH antagonist 50 μg/rat; 2 days; FIG. 5C; comparable to FBP-treated group
# Procedure: as §1
# Some animals were treated with a potent gonadotropin releasing hormone (GnRH) antagonist (Org30850: Acetyl-D-parachloro-Phe (AcDpCl-Phe), D-parachloro-Phe (DpCl-Phe), D-Bal, DLys, DAla-amide; (AcDpCl)Phe1 - (DpCl)Phe2 - D-Bal3 - DLys6 -DAla10(amide) (SEQ ID NO:5; D refers to D (not L) amino acids); 50 μg/rat, FIG. 5C (ANT); Decker, et al., 1992) to suppress pituitary release of LH and FSH (Decker, et al., 1992) whereas others were treated with conditioned media of SF9 cells infected with wild type baculovirus. In situ analysis of specific cell types undergoing apoptosis was performed using Apotag kit (Oncor, Gaithersburg, MD) as previously described (Billig, et al., 1995). Animal care was in accordance with institutional guidelines.
substance,measurement,setting,value
"Acetyl-D-parachloro-Phe (AcDpCl-Phe), D-parachloro-Phe (DpCl-Phe), D-Bal, DLys, DAla-amide; (AcDpCl)Phe1 - (DpCl)Phe2 - D-Bal3 - DLys6 -DAla10(amide) [ANT]",testis weight,[1],140 ± 18 mg
same,apoptotic DNA fragmentation in testis cells,[2],increases in apoptotic DNA fragmentation
